Laboratory results reported in patent US9957264B2 (Merck Sharp & Dohme Corp., priority 2013, dated 2018).

Assays:
[1] = biological target: JAK2 (recombinant purified GST-tagged catalytic domain) (Homo sapiens (Human), UniProt O60674); assay: Jak Biochemical HTRF Assay (JAK2); settings: [ATP] 8.5 μM
[2] = biological target: JAK1 (recombinant purified GST-tagged catalytic domain) (Homo sapiens (Human), UniProt P23458); assay: Jak Biochemical HTRF Assay (JAK1); settings: [ATP] 31.8 μM
How it was run: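 Kinase reaction with biotinylated peptide substrate was started by ATP addition and run 120 min at room temperature, then quenched with EDTA stop buffer containing streptavidin-Dylight 650 and Eu-pY20 antibody. HTRF read 60 min later (665/615 nm ratio); percent inhibition vs log concentration fit to 4-parameter curve for IC50.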

JAK2 (recombinant purified GST-tagged catalytic domain), sequence (O60674 849-1124): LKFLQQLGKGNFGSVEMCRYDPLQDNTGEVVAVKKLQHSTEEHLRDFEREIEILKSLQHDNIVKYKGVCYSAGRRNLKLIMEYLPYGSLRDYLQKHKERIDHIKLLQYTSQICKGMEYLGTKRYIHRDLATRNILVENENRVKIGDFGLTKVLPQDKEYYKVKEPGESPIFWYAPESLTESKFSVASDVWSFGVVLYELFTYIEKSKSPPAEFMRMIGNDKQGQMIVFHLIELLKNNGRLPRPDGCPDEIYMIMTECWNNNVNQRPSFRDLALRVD
JAK1 (recombinant purified GST-tagged catalytic domain), sequence (P23458 875-1153): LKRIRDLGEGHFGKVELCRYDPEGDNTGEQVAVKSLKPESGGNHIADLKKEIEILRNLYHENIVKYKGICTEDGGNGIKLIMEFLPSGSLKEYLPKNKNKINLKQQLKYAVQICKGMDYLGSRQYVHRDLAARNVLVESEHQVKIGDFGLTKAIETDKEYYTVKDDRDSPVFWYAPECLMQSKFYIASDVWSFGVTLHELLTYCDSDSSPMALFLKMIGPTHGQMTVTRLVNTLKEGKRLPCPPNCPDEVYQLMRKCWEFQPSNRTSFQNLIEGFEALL

Compound	IC50 [1]	IC50 [2]
CC(C)(C)N1Cc2cc(Nc3nn(C4(CC#N)CCCCC4)c4cc[nH]c(=O)c34)ccc2S1(=O)=O [Example 5-80, 2-(1-(3-((2-(tert-butyl)-1,1-dioxido-2,3-dihydrobenzo[d]isothiazol-5-yl)amino)-4-oxo-4,5-dihydro-1H-pyrazolo[4,3-c]pyridin-1-yl)cyclohexyl)acetonitrile]	1.21 nM	0.08 nM
CN1Cc2cc(Nc3nn(C4(CC#N)CCCCC4)c4cc[nH]c(=O)c34)ccc2S1(=O)=O [Example 5-81, 2-(1-(3-((2-methyl-1,1-dioxido-2,3-dihydrobenzo[d]isothiazol-5-yl)amino)-4-oxo-4,5-dihydro-1H-pyrazolo[4,3-c]pyridin-1-yl)cyclohexyl)acetonitrile]	3.73 nM	0.24 nM
CC(C)(C)OC(=O)N1CCC(CC#N)(n2nc(Nc3ccc4c(c3)CCS4(=O)=O)c3c(=O)[nH]ccc32)CC1 [Example 5-82, tert-butyl 4-(cyanomethyl)-4-(3-((1,1-dioxido-2,3-dihydrobenzo[d]thiophen-5-yl)amino)-4-oxo-4,5-dihydro-1H-pyrazolo[4,3-c]pyridin-1-yl)piperidine-1-carboxylate]	0.31 nM	0.1 nM
N#CCC1(n2nc(Nc3ccc(C(F)(F)F)cc3)c3c(=O)[nH]ccc32)CCC2(CC1)OCCO2 [Example 5-83, 2-(8-(4-oxo-3-((4-(trifluoromethyl)phenyl)amino)-4,5-dihydro-1H-pyrazolo[4,3-c]pyridin-1-yl)-1,4-dioxaspiro[4.5]decan-8-yl)acetonitrile]	21.6 nM	1.97 nM
CC(C)S(=O)(=O)c1ccc(Nc2nn([C@@]3(CC#N)CCCC[C@H]3F)c3cc[nH]c(=O)c23)cc1 [Example 5-87, {(1R,2R)-2-fluoro-1-[3-({4-[(1-methylethyl)sulfonyl]phenyl}amino)-4-oxo-4,5-dihydro-1H-pyrazolo[4,3-c]pyridin-1-yl]cyclohexyl}acetonitrile]	0.05 nM	0.04 nM
CN(C(C)(C)C)S(=O)(=O)c1ccc(Nc2nn([C@]3(CC#N)CC[C@@H](C(=O)OC(C)(C)C)OC3)c3cc[nH]c(=O)c23)cc1 [Example 5-90, (2S,5S)-tert-butyl 5-(3-((4-(N-(tert-butyl)-N-methylsulfamoyl)phenyl)amino)-4-oxo-4,5-dihydro-1H-pyrazolo[4,3-c]pyridin-1-yl)-5-(cyanomethyl)tetrahydro-2H-pyran-2-carboxylate]	0.41 nM	0.33 nM
CC(C)N(C)S(=O)(=O)c1ccc(Nc2nn([C@]3(CC#N)CC[C@@H](C(=O)OC(C)(C)C)OC3)c3cc[nH]c(=O)c23)cc1 [Example 5-91, (2S,5S)-tert-butyl 5-(cyanomethyl)-5-(3-((4-(N-isopropyl-N-methylsulfamoyl)phenyl)amino)-4-oxo-4,5-dihydro-1H-pyrazolo[4,3-c]pyridin-1-yl)tetrahydro-2H-pyran-2-carboxylate]	0.23 nM	0.14 nM
CCN(C)S(=O)(=O)c1ccc(Nc2nn([C@]3(CC#N)CC[C@@H](C(=O)OC(C)(C)C)OC3)c3cc[nH]c(=O)c23)cc1 [Example 5-92, (2S,5S)-tert-butyl 5-(cyanomethyl)-5-(3-((4-(N-ethyl-N-methylsulfamoyl)phenyl)amino)-4-oxo-4,5-dihydro-1H-pyrazolo[4,3-c]pyridin-1-yl)tetrahydro-2H-pyran-2-carboxylate]	0.13 nM	0.09 nM
CNS(=O)(=O)c1ccc(Nc2nn([C@]3(CC#N)CC[C@@H](C(=O)OC(C)(C)C)OC3)c3cc[nH]c(=O)c23)cc1 [Example 5-94, (2S,5S)-tert-butyl 5-(cyanomethyl)-5-(3-((4-(N-methylsulfamoyl)phenyl)amino)-4-oxo-4,5-dihydro-1H-pyrazolo[4,3-c]pyridin-1-yl)tetrahydro-2H-pyran-2-carboxylate]	0.18 nM	0.04 nM
CC(C)(C)OC(=O)[C@@H]1CC[C@@](CC#N)(n2nc(Nc3ccc4c(c3)CN(CC(F)(F)F)C4=O)c3c(=O)[nH]ccc32)CO1 [Example 5-95, (2S,5S)-tert-butyl 5-(cyanomethyl)-5-(4-oxo-3-((1-oxo-2-(2,2,2-trifluoroethyl)isoindolin-5-yl)amino)-4,5-dihydro-1H-pyrazolo[4,3-c]pyridin-1-yl)tetrahydro-2H-pyran-2-carboxylate]	0.2 nM	0.07 nM
CC(C)(C)OC(=O)[C@@H]1CC[C@@](CC#N)(n2nc(Nc3ccc(Cn4nccn4)cc3)c3c(=O)[nH]ccc32)CO1 [Example 5-97, (2S,5S)-tert-butyl 5-(3-((4-((2H-1,2,3-triazol-2-yl)methyl)phenyl)amino)-4-oxo-4,5-dihydro-1H-pyrazolo[4,3-c]pyridin-1-yl)-5-(cyanomethyl) tetrahydro-2H-pyran-2-carboxylate]	0.14 nM	0.09 nM
CC(C)S(=O)(=O)c1ccc(Nc2nn([C@]3(CC#N)CC[C@@H](C(=O)OC(C)(C)C)OC3)c3cc[nH]c(=O)c23)cc1 [Example 5-98, (2S,5S)-tert-butyl 5-(cyanomethyl)-5-(3-((4-(isopropylsulfonyl)phenyl)amino)-4-oxo-4,5-dihydro-1H-pyrazolo[4,3-c]pyridin-1-yl)tetrahydro-2H-pyran-2-carboxylate]	0.18 nM	0.07 nM
CC(C)(C)OC(=O)[C@@H]1CC[C@@](CC#N)(n2nc(Nc3ccc(S(=O)(=O)C4CC4)cc3)c3c(=O)[nH]ccc32)CO1 [Example 5-99, (2S,5S)-tert-butyl 5-(cyanomethyl)-5-(3-((4-(cyclopropylsulfonyl)phenyl)amino)-4-oxo-4,5-dihydro-1H-pyrazolo [4,3-c]pyridin-1-yl) tetrahydro-2H-pyran-2-carboxylate]	0.14 nM	0.05 nM
CC(C)(C)OC(=O)[C@@H]1CC[C@@](CC#N)(n2nc(Nc3ccc4c(c3)CN(C(C)(C)C)C4=O)c3c(=O)[nH]ccc32)CO1 [Example 5-100, (2S,5S)-tert-butyl 5-(3-((2-(tert-butyl)-1-oxoisoindolin-5-yl)amino)-4-oxo-4,5-dihydro-1H-pyrazolo[4,3-c]pyridin-1-yl)-5-(cyanomethyl)tetrahydro-2H-pyran-2-carboxylate]	0.26 nM	0.14 nM
CC(C)(C)OC(=O)[C@@H]1CC[C@@](CC#N)(n2nc(Nc3ccc4c(c3)CN(C3CCCCC3)C4=O)c3c(=O)[nH]ccc32)CO1 [Example 5-101, (2S,5S)-tert-butyl 5-(cyanomethyl)-5-(3-((2-cyclohexyl-1-oxoisoindolin-5-yl)amino)-4-oxo-4,5-dihydro-1H-pyrazolo[4,3-c]pyridin-1-yl)tetrahydro-2H-pyran-2-carboxylate]	0.4 nM	0.18 nM
CC(C)(C)OC(=O)[C@@H]1CC[C@@](CC#N)(n2nc(Nc3ccc4c(c3)CN(C3CCCC3)C4=O)c3c(=O)[nH]ccc32)CO1 [Example 5-102, (2S,5S)-tert-butyl 5-(cyanomethyl)-5-(3-((2-cyclopentyl-1-oxoisoindolin-5-yl)amino)-4-oxo-4,5-dihydro-1H-pyrazolo[4,3-c]pyridin-1-yl)tetrahydro-2H-pyran-2-carboxylate]	0.2 nM	0.1 nM
